Laboratory results from ChEMBL document CHEMBL4184145, “Synthesis and structure-activity relationship of teixobactin analogues via convergent Ser ligation” (2017).
Values after ≈ are worked out from the molar mass of the structure shown.

Columns and labels:
Staphylococcus aureus [1] = assay: Antibacterial activity against methicillin-susceptible Staphylococcus aureus ATCC 29213 by broth dilution assay; format: functional
Staphylococcus aureus [2] = assay: Antibacterial activity against methicillin-resistant Staphylococcus aureus clinical isolate SA86 by broth dilution assay; format: functional

Compound | MIC (Staphylococcus aureus [1]) [µg/mL] | MIC (Staphylococcus aureus [2]) [µg/mL]
CC[C@@H](C)[C@@H](NC(=O)[C@@H](CCC(N)=O)NC(=O)[C@H](CO)NC(=O)[C@@H](NC(=O)[C@@H](Cc1ccccc1)NC)[C@@H](C)CC)C(=O)N[C@H](C(=O)N[C@@H](CO)C(=O)N[C@H]1C(=O)N[C@@H](Cc2ccccc2)C(=O)N[C@@H](CCCN)C(=O)N[C@@H]([C@@H](C)CC)C(=O)O[C@H]1C)[C@@H](C)CC | ≥ 32 | ≥ 32
CC[C@@H](C)[C@@H](NC(=O)[C@@H](CCC(N)=O)NC(=O)[C@H](CO)NC(=O)[C@@H](NC(=O)[C@@H](Cc1ccccc1)NC)[C@@H](C)CC)C(=O)N[C@H](C(=O)N[C@@H](CO)C(=O)N[C@H]1C(=O)N[C@@H](C)C(=O)N[C@@H](CCCN)C(=O)N[C@@H](CC(C)C)C(=O)O[C@H]1C)[C@@H](C)CC | ≥ 32 | ≥ 32
CC[C@@H](C)[C@@H](NC(=O)[C@@H](CCC(N)=O)NC(=O)[C@H](CO)NC(=O)[C@@H](NC(=O)[C@@H](Cc1ccccc1)NC)[C@@H](C)CC)C(=O)N[C@H](C(=O)N[C@@H](CO)C(=O)N[C@H]1C(=O)N[C@@H](CCCN)C(=O)N[C@@H](CCCN)C(=O)N[C@@H]([C@@H](C)CC)C(=O)O[C@H]1C)[C@@H](C)CC | 8 (≈ 6.42 µM) | 8 (≈ 6.42 µM)
CC[C@@H](C)[C@@H](NC(=O)[C@@H](CCC(N)=O)NC(=O)[C@H](CO)NC(=O)[C@@H](NC(=O)[C@@H](Cc1ccccc1)NC)[C@@H](C)CC)C(=O)N[C@@H](Cc1ccccc1)C(=O)N[C@@H](CO)C(=O)N[C@H]1C(=O)N[C@@H](C)C(=O)N[C@@H](CCCN)C(=O)N[C@@H]([C@@H](C)CC)C(=O)O[C@H]1C | ≥ 32 | ≥ 32
CC[C@@H](C)[C@@H](NC(=O)[C@@H](CCC(N)=O)NC(=O)[C@H](CO)NC(=O)[C@@H](NC(=O)[C@@H](Cc1ccccc1)NC)[C@@H](C)CC)C(=O)N[C@H](C(=O)N[C@@H](CO)C(=O)N[C@H]1C(=O)N[C@@H](C)C(=O)N[C@@H](CCCN)C(=O)N[C@@H](C(C)C)C(=O)O[C@H]1C)[C@@H](C)CC | 8 (≈ 6.73 µM) | 8 (≈ 6.73 µM)
CC[C@@H](C)[C@@H](NC(=O)[C@@H](CCC(N)=O)NC(=O)[C@H](CO)NC(=O)[C@@H](NC(=O)[C@@H](Cc1ccccc1)NC)[C@@H](C)CC)C(=O)N[C@H](C(=O)N[C@@H](CO)C(=O)N[C@H]1C(=O)NCC(=O)N[C@@H](CCCN)C(=O)N[C@@H]([C@@H](C)CC)C(=O)O[C@H]1C)[C@@H](C)CC | ≥ 32 | ≥ 32
CC[C@@H](C)[C@@H](NC(=O)[C@@H](CCC(N)=O)NC(=O)[C@H](CO)NC(=O)[C@@H](NC(=O)[C@@H](Cc1ccccc1)NC)[C@@H](C)CC)C(=O)N[C@@H](CC(C)C)C(=O)N[C@@H](CO)C(=O)N[C@H]1C(=O)N[C@@H](C)C(=O)N[C@@H](CCCN)C(=O)N[C@@H]([C@@H](C)CC)C(=O)O[C@H]1C | ≥ 32 | ≥ 32
CC[C@@H](C)[C@@H](NC(=O)[C@@H](CCC(N)=O)NC(=O)[C@H](CO)NC(=O)[C@@H](NC(=O)[C@@H](Cc1ccccc1)NC)[C@@H](C)CC)C(=O)N[C@H](C(=O)N[C@@H](CO)C(=O)N[C@H]1C(=O)N[C@H](C)C(=O)N[C@@H](CCCN)C(=O)N[C@@H]([C@@H](C)CC)C(=O)O[C@H]1C)[C@@H](C)CC | ≥ 32 | ≥ 32
CC[C@@H](C)[C@@H](NC(=O)[C@@H](CCC(N)=O)NC(=O)[C@H](CO)NC(=O)[C@@H](NC(=O)[C@@H](Cc1ccccc1)NC)[C@@H](C)CC)C(=O)N[C@H](C(=O)N[C@@H](CO)C(=O)N[C@H]1C(=O)N[C@@H](C)C(=O)N[C@@H](CCCN)C(=O)N[C@@H]([C@@H](C)CC)C(=O)O[C@H]1C)C(C)C | ≥ 32 | ≥ 32
